Data taken from ChEMBL document CHEMBL1140648, “Structure-activity relationships of bioisosteres of a carboxylic acid in a novel class of bacterial translation inhibitors” (2007).
≈ marks a conversion by molar mass, not a printed value.

Key:
Type in all cases: functional
Staphylococcus aureus [1] = assay: Antibacterial activity against Staphylococcus aureus UC9218
Staphylococcus aureus [2] = assay: Inhibition of transcription/translation in Staphylococcus aureus at 100 uM
Staphylococcus aureus [3] = assay: Antibacterial activity against Staphylococcus aureus UC9218 in presence of 10% HSA
Staphylococcus aureus [4] = assay: Ratio of MIC for Staphylococcus aureus UC9218 in presence of 5% HSA to MIC for Staphylococcus aureus UC9218 in absence of HSA
Staphylococcus aureus [5] = assay: Antibacterial activity against Staphylococcus aureus UC9218 in presence of 5% HSA

SMILES | MIC (Staphylococcus aureus [1]) [µg/mL] | MIC (Staphylococcus aureus [3]) [µg/mL] | MIC (Staphylococcus aureus [5]) [µg/mL] | inhibition at 100 µM (Staphylococcus aureus [2]) [%] | Ratio (Staphylococcus aureus [4])
CN(c1ccc(Cl)cc1)S(=O)(=O)c1ccc(C(=O)Nc2ccc(Br)cc2C(N)=O)cc1 | > 128 |  |  | 13 | 
Cc1cc(Br)ccc1NC(=O)c1ccc(S(=O)(=O)N(C)c2ccc(Cl)cc2)cc1 | > 128 |  |  | 12 | 
CN(c1ccc(Cl)cc1)S(=O)(=O)c1ccc(C(=O)Nc2ccc(Br)cc2-c2nnn[nH]2)cc1 | 16 (≈ 29.2 µM) |  |  | 96 | 
CN(c1ccc(Cl)cc1)S(=O)(=O)c1ccc(C(=O)Nc2ccc(Br)cc2Br)cc1 | > 128 |  |  | 6 | 
CN(c1ccc(Cl)cc1)S(=O)(=O)c1ccc(C(=O)Nc2ccc(Br)cc2C#N)cc1 | > 128 |  |  | 0 | 
CONC(=O)c1cc(Br)ccc1NC(=O)c1ccc(S(=O)(=O)N(C)c2ccc(Cl)cc2)cc1 | > 128 |  |  | 7 | 
CN(c1ccc(Cl)cc1)S(=O)(=O)c1ccc(C(=O)Nc2ccc(Br)cc2C(O)(C(F)(F)F)C(F)(F)F)cc1 | 0.5 (≈ 0.774 µM) | > 128 | 64 | 41 | 128
CN(c1ccc(Cl)cc1)S(=O)(=O)c1ccc(C(=O)Nc2ccc(Br)cc2Cc2nnn[nH]2)cc1 | > 128 |  |  | 46 | 
CO[C@@H]1[C@@H](OC(N)=O)[C@@H](O)[C@H](Oc2ccc3c(O)c(NC(=O)c4ccc(O)c(CC=C(C)C)c4)c(=O)oc3c2C)OC1(C)C [NOVOBIOCIN] | > 0.125 | 1 | 0.5 |  | 
CN(c1ccc(Cl)cc1)S(=O)(=O)c1ccc(C(=O)Nc2ccc(Br)cc2-c2noc(=O)[nH]2)cc1 | 8 (≈ 14.2 µM) | > 128 | > 128 | 98 | >8
CN(c1ccc(Cl)cc1)S(=O)(=O)c1ccc(C(=O)Nc2ccc(Br)cc2)cc1 | > 128 |  |  | 11 | 
CN(c1ccc(Cl)cc1)S(=O)(=O)c1ccc(C(=O)Nc2ccc(Br)cc2S(N)(=O)=O)cc1 | > 128 |  |  | 0 | 

Second part, led by results:

MIC (Staphylococcus aureus [1]) [µg/mL] | MIC (Staphylococcus aureus [3]) [µg/mL] | MIC (Staphylococcus aureus [5]) [µg/mL] | SMILES | inhibition at 100 µM (Staphylococcus aureus [2]) [%] | Ratio (Staphylococcus aureus [4])
2 (≈ 3.55 µM) | > 128 |  | CN(c1ccc(Cl)cc1)S(=O)(=O)c1ccc(C(=O)Nc2ccc(Br)cc2-c2n[nH]c(=O)o2)cc1 | 60 | 
> 128 |  |  | CN(c1ccc(Cl)cc1)S(=O)(=O)c1ccc(C(=O)Nc2ccc(Br)cc2NS(C)(=O)=O)cc1 | 19 | 
> 128 |  |  | CC(O)c1cc(Br)ccc1NC(=O)c1ccc(S(=O)(=O)N(C)c2ccc(Cl)cc2)cc1 (stereo unspecified) | 7 | 
8 (≈ 15.3 µM) | > 128 | 128 | CN(c1ccc(Cl)cc1)S(=O)(=O)c1ccc(C(=O)Nc2ccc(Br)cc2C(=O)O)cc1 | 79 | 8
> 128 |  |  | CC(=O)c1cc(Br)ccc1NC(=O)c1ccc(S(=O)(=O)N(C)c2ccc(Cl)cc2)cc1 | 0 | 
> 128 |  |  | CN(c1ccc(Cl)cc1)S(=O)(=O)c1ccc(C(=O)Nc2ccc(Br)cc2CO)cc1 | 4 | 
> 128 |  |  | CN(c1ccc(Cl)cc1)S(=O)(=O)c1ccc(C(=O)Nc2ccc(Br)cc2[N+](=O)[O-])cc1 | 0 | 
32 (≈ 51 µM) |  |  | CN(c1ccc(Cl)cc1)S(=O)(=O)c1ccc(C(=O)Nc2ccc(Br)cc2NS(=O)(=O)C(F)(F)F)cc1 | 72 | 
